Test results published in the NIST ThermoML archive (doi:10.1016/j.tca.2006.01.013).
± gives the expanded uncertainty stated by the source.

Details: 101.33 kPa, Liquid, Vibrating tube method

NCCN [ethane-1,2-diamine]
Details | mass density [kg/m3]
285.15 K | 904.27 ± 0.47
285.65 K | 903.81 ± 0.47
286.15 K | 903.34 ± 0.47
286.65 K | 902.87 ± 0.47
287.15 K | 902.41 ± 0.47
287.65 K | 901.94 ± 0.47
288.15 K | 901.47 ± 0.47
288.65 K | 901 ± 0.47
289.15 K | 900.53 ± 0.47
289.65 K | 900.07 ± 0.47
290.15 K | 899.6 ± 0.47
290.65 K | 899.13 ± 0.47
291.15 K | 898.66 ± 0.46
291.65 K | 898.19 ± 0.46
292.15 K | 897.72 ± 0.46
292.65 K | 897.25 ± 0.46
293.15 K | 896.78 ± 0.46
293.65 K | 896.31 ± 0.46
294.15 K | 895.85 ± 0.46
294.65 K | 895.38 ± 0.46
295.15 K | 894.91 ± 0.46
295.65 K | 894.44 ± 0.46
296.15 K | 893.97 ± 0.46
296.65 K | 893.5 ± 0.46
297.15 K | 893.03 ± 0.46
297.65 K | 892.56 ± 0.46
298.15 K | 892.09 ± 0.46
298.65 K | 891.62 ± 0.46
299.15 K | 891.14 ± 0.46
299.65 K | 890.67 ± 0.46
300.15 K | 890.2 ± 0.46
300.65 K | 889.73 ± 0.46
301.15 K | 889.26 ± 0.46
301.65 K | 888.79 ± 0.46
302.15 K | 888.32 ± 0.46
302.65 K | 887.85 ± 0.46
303.15 K | 887.38 ± 0.46
303.65 K | 886.9 ± 0.46
304.15 K | 886.43 ± 0.46
304.65 K | 885.96 ± 0.46
305.15 K | 885.49 ± 0.46
305.65 K | 885.02 ± 0.46
306.15 K | 884.54 ± 0.46
306.65 K | 884.07 ± 0.46
307.15 K | 883.6 ± 0.46
307.65 K | 883.12 ± 0.46
308.15 K | 882.65 ± 0.46
308.65 K | 882.18 ± 0.46
309.15 K | 881.7 ± 0.46
309.65 K | 881.23 ± 0.46
310.15 K | 880.76 ± 0.46
310.65 K | 880.28 ± 0.46
311.15 K | 879.81 ± 0.46
311.65 K | 879.33 ± 0.46
312.15 K | 878.86 ± 0.46
312.65 K | 878.38 ± 0.46
313.15 K | 877.91 ± 0.46
313.65 K | 877.44 ± 0.46
314.15 K | 876.96 ± 0.46
314.65 K | 876.48 ± 0.46
315.15 K | 876.01 ± 0.46
315.65 K | 875.53 ± 0.46
316.15 K | 875.06 ± 0.46
316.65 K | 874.58 ± 0.46
317.15 K | 874.11 ± 0.46
317.65 K | 873.63 ± 0.46
318.15 K | 873.15 ± 0.46
318.65 K | 872.68 ± 0.46
319.15 K | 872.2 ± 0.46
319.65 K | 871.72 ± 0.46
320.15 K | 871.25 ± 0.45
320.65 K | 870.77 ± 0.45
321.15 K | 870.29 ± 0.45
321.65 K | 869.81 ± 0.45
322.15 K | 869.34 ± 0.45
322.65 K | 868.86 ± 0.45
323.15 K | 868.38 ± 0.45
323.65 K | 867.9 ± 0.45
